Holding throughout (assay): MIC, microdilution broth method
Background: Dilution methods test growth across graded concentrations, often in twofold steps.

The subject of one assay is VRE12201. Type of assay: cell-based, Enterococcus faecalis. The following applies: VRE12201; in µg/mL.
A further assay concerns VRE12204. Type of assay: cell-based, Enterococcus faecium. The settings on record: VRE12204; in µg/mL.
For a further assay, the system named is VSE775. The format is cell-based, Enterococcus faecalis. The following applies: VSE775; in µg/mL.
A further assay relates to MSSA9144. Type of assay: cell-based, Staphylococcus aureus. The following applies: MSSA9144; in µg/mL.
Another assay relates to M6. Type of assay: cell-based. The following applies: M6, in µg/mL.
Another assay concerns EMRSA16. The format is cell-based, Staphylococcus aureus. The settings on record: for MIC: EMRSA16, in µg/mL.
The next assay deals with EMRSA15. The format is cell-based, Staphylococcus aureus. The settings on record: for MIC: EMRSA15, in µg/mL.
In another assay the test system is Ab17978. Type of assay: cell-based. The following applies: Ab17978, in µg/mL.
In the next assay the test system is PA01. The format is cell-based, Pseudomonas aeruginosa. The following applies: PA01, in µg/mL.

Turning to `CCn1cc(C(=O)O)c(=O)c2cc(F)c(N3CCN(Cc4cccc5c4CCCC5)CC3)cc21` [ML-77-077], the MIC was 2 against VRE12201; 1-2 against VRE12204; 2 in the assay on VSE775; 1 against MSSA9144; 64 in the assay on M6 (Normal (no PMBN)); 2 with EMRSA16. Further, the results for the MIC against EMRSA15 and with Ab17978 (Normal (no PMBN)) were 2 and 32-128, respectively.
`O=C(O)c1cn(C2CC2)c2cc(N3CCN(Cc4cccc5c4CCCC5)CC3)c(F)cc2c1=O` [ML-77-076]: the MIC in the assay on VRE12201 was 1-2; against VRE12204, 1-2; in the assay with VSE775, 2; in the assay with MSSA9144 it was 0.25; in the assay on M6 (Normal (no PMBN)), 8; with EMRSA16 it was 1-2. The same compound displayed an MIC against EMRSA15 of 1.
With `O=C(O)c1cn(C2CC2)c2cc(N3CCN(CCc4cccc5ccccc45)CC3)c(F)cc2c1=O` [ML-77-171], the MIC in the assay on VRE12201 was 2; against VRE12204 it was 4; in the assay on VSE775 it was 4; against MSSA9144 it was 0.5; with EMRSA16, 4; against EMRSA15 it was 2-4.
Consider `CCn1cc(C(=O)O)c(=O)c2cc(F)c(N3CCN(Cc4cc(C)cc(C)c4)CC3)cc21` [ML-77-150, 7-(4-(3,5-dimethylbenzyl)piperazin-1-yl)-1-ethyl-6-fluoro-4-oxo-1,4-dihydroquinoline-3-carboxylic acid], for which the MIC against VRE12201 is on record as 8; against VRE12204 it was 4-8; in the assay on VSE775 it was 8; with MSSA9144, 0.5-1; against M6 (Normal (no PMBN)), 32-64; in the assay on EMRSA16, 4-8. For the same compound, the MIC in the assay with EMRSA15 is on record as 4-8; in the assay on Ab17978 (Normal (no PMBN)), 16.
Regarding `O=C(O)c1cn(C2CC2)c2cc(N3CCN(Cc4ccc(I)cc4)CC3)c(F)cc2c1=O`, the MIC is listed as 1-2 against VRE12201; 4 against VRE12204; 2 against VSE775; 0.12-0.25 in the assay with MSSA9144; 4 against EMRSA16; 4 in the assay with EMRSA15.
With `CCn1cc(C(=O)O)c(=O)c2cc(F)c(N3CCN(Cc4cccc5ccccc45)CC3)nc21` [ML-77-025], the MIC with VRE12201 is 8; with VRE12204, 4; against VSE775, 16; in the assay with MSSA9144 it was 0.5-1; with EMRSA16 it was 2-4; against EMRSA15 it was 2-8. In addition, the “fold reduction (potentiation) in MIC compared to the parent fluoroquinolone” value with EMRSA16 (EMRSA-16) and in the assay with EMRSA15 (EMRSA-15) was 64-128 fold in each case.
Turning to `C[C@H]1COc2c(N3CCN(Cc4cccc5ccccc45)CC3)c(F)cc3c(=O)c(C(=O)O)cn1c23` [ML-77-140, (S)-9-fluoro-3-methyl-10-(4-(naphthalen-1-ylmethyl)piperazin-1-yl)-7-oxo-2,3-dihydro-7H-[1,4]oxazino[2,3,4-ij]quinoline-6-carboxylic acid], the MIC against VRE12201 is given as 0.5-1; against VRE12204 it was 1-2; against VSE775, 1-2; against MSSA9144 it was 0.125-1; in the assay with EMRSA16 it was 2-4; in the assay on EMRSA15 it was 4.
For the compound `O=C(O)c1cn(C2CC2)c2cc(N3CCN(c4cccc5ccccc45)CC3)c(F)cc2c1=O` [ML-77-168], the MIC in the assay on VRE12201 is 0.25-0.5; against VRE12204, 1; against VSE775, 2; in the assay with MSSA9144 it was 1; in the assay on EMRSA16, 1; in the assay with EMRSA15, 1-2.
For the compound `O=C(O)c1cn(C2CC2)c2cc(N3CCN(Cc4ccc(S(=O)(=O)NCCc5c[nH]c6ccccc56)cc4)CC3)c(F)cc2c1=O` [ML-77-138], the MIC is ≤0.12 in the assay on PA01 (+PMBN); 0.25-0.5 in the assay with MSSA9144; 1 against M6 (+PMBN); 1 against Ab17978 (+PMBN); 64 in the assay with Ab17978 (Normal (no PMBN)).
For the compound `CCn1cc(C(=O)O)c(=O)c2cc(F)c(N3CCN(Cc4ccc(-c5ccccc5)cc4)CC3)cc21` [ML-77-134, 7-(4-([1,1′-biphenyl]-4-ylmethyl)piperazin-1-yl)-1-ethyl-6-fluoro-4-oxo-1,4-dihydroquinoline-3-carboxylic acid], the MIC against VRE12201 is on record as 4; against VRE12204, 2; in the assay on VSE775 it was 2; in the assay with MSSA9144, 2; in the assay with M6 (Normal (no PMBN)) it was 64; in the assay on EMRSA16, 4. Moreover, the MIC against EMRSA15 worked out at 2.
In the case of `CCn1cc(C(=O)O)c(=O)c2cc(F)c(N3CCN(Cc4ccc(-n5cccn5)cc4)CC3)cc21` [Compound 3.30, 7-(4-(4-(1H-pyrazol-1-yl)benzyl)piperazin-1-yl)-1-ethyl-6-fluoro oxo-1-4-dihydroquinoline-3-carboxylic acid], the MIC against VRE12201 is reported as 4-8; in the assay with VRE12204 it was 16; in the assay on VSE775, 8; in the assay with MSSA9144, 0.5; with EMRSA16, 32; against EMRSA15 it was 16-32.
Take `O=C(O)c1cn(C2CC2)c2cc(N3CCN(Cc4ccc(-c5csnn5)cc4)CC3)c(F)cc2c1=O` [ML-77-157]: the MIC was 0.5 against VRE12201; 4-8 against VRE12204; 0.5 with VSE775; <0.12 with MSSA9144; 1 in the assay with M6 (Normal (no PMBN)); 8 against EMRSA16. Also, the MIC in the assay with EMRSA15 is 4; with Ab17978 (Normal (no PMBN)), 0.25-0.5.
Regarding `CCn1cc(C(=O)O)c(=O)c2cc(F)c(N3CCN(Cc4ccc(-c5noc(C)n5)cc4)CC3)cc21` [Compound 3.36, 1-ethyl-6-fluoro-7-(4-(4-(5-methyl-1,2,4-oxadiazol-3-yl)-benzyl)piperazin-1-yl)-4-oxo-1,4-dihydroquinone-3-carboxylic acid], the MIC is given as 4 in the assay on VRE12201; 8 in the assay with VRE12204; 8 in the assay with VSE775; 0.25 with MSSA9144; 32 against EMRSA16; 16-32 in the assay on EMRSA15.
Regarding `O=C(O)c1cn(C2CC2)c2cc(N3CCN(Cc4ccc5ccccc5c4)CC3)c(F)cc2c1=O` [ML-77-036], the MIC is listed as 0.5 against VRE12201; 2 with VRE12204; 0.5-2 in the assay with VSE775; 0.12 with MSSA9144; 4-32 against M6 (Normal (no PMBN)); 2 in the assay on EMRSA16. Further, the MIC in the assay with EMRSA15 stood at 2; with Ab17978 (Normal (no PMBN)) it was 8.
As to `O=C(O)c1cn(C2CC2)c2cc(N3CCN(Cc4cccc5ccsc45)CC3)c(F)cc2c1=O` [ML-77-078], the MIC was 0.5 against VRE12201; 1-2 with VRE12204; 2-4 in the assay on VSE775; <0.12 against MSSA9144; 32 in the assay on M6 (Normal (no PMBN)); 2 against EMRSA16. Also, the figures for the MIC in the assay with EMRSA15 and against Ab17978 (Normal (no PMBN)) were 2 and 4-8, respectively.
For `CCn1cc(C(=O)O)c(=O)c2cc(F)c(N3CCN(CCc4cccc5ccccc45)CC3)cc21` [ML-77-173, 1-ethyl-6-fluoro-7-(4-(2-(naphthalen-1-yl)ethyl)piperazin-1-yl)-4-oxo-1,4-dihydroquinoline-3-carboxylic acid], the MIC with VRE12201 is 4-8; against VRE12204, 4; against VSE775 it was 4-8; against MSSA9144, 2-4; against EMRSA16, 4; against EMRSA15 it was 4.
For the compound `CCn1cc(C(=O)O)c(=O)c2cc(F)c(N3CCN(Cc4cccc5ccsc45)CC3)cc21` [ML-77-079], the MIC is reported as 0.5-2 against VRE12201; 1-2 in the assay with VRE12204; 4 in the assay with VSE775; 0.25 in the assay on MSSA9144; 32 in the assay with M6 (Normal (no PMBN)); 2 in the assay on EMRSA16. In the assay on EMRSA15, this compound gave an MIC of 2.
Consider `O=C(O)c1cn(C2CC2)c2cc(N3CCN(Cc4ccc(-n5cncn5)cc4)CC3)c(F)cc2c1=O` [Compound 2.36, 7-(4-(4-(1H-1,2,4-triazol-1-yl)benzyl)piperazin-1-yl)-1-cyclopropyl-6-fluoro-4-oxo-1,4-dihydroquinoline-3-carboxylic acid], for which the MIC against VRE12201 is given as 0.5; in the assay with VRE12204 it was 8; against VSE775, 1; in the assay with MSSA9144, 0.12; against EMRSA16 it was 16; with EMRSA15 it was 16-32.
Consider `CCn1cc(C(=O)O)c(=O)c2cc(F)c(N3CCN(c4cccc5ccccc45)CC3)cc21` [ML-77-169, 1-ethyl-6-fluoro-7-(4-(naphthalen-1-yl)piperazin-1-yl)-4-oxo-1,4-dihydroquinoline-3-carboxylic acid], for which the MIC in the assay on VRE12201 is listed as 2; against VRE12204, 1; in the assay on VSE775, 2; with MSSA9144 it was 2; against EMRSA16, 1; in the assay on EMRSA15, 1-2.
Turning to `Cc1nc(-c2ccc(CN3CCN(c4cc5c(cc4F)c(=O)c(C(=O)O)cn5C4CC4)CC3)cc2)no1` [ML-77-163], the MIC is listed as 32 against PA01 (Normal (no PMBN)); 1 with VRE12201; 1-2 against VSE775; ≤0.12 against MSSA9144; 2 in the assay on M6 (Normal (no PMBN)); 32 with EMRSA16. In the assay with Ab17978 (Normal (no PMBN)), the MIC is 0.5-1.

For the origin of these results see patent US11746116B2, “Antibiotic resistance breakers” (KING'S COLLEGE LONDON, priority 2017, dated 2023).
